Measurements as given in patent publication US20110028422A1 (priority 2007, published 2011).

Tests used:
NFκB pathway = NFκB pathway regulation; assay type: cell-based; conditions: c-abl inhibition; B-CLL lymphocytes
H2AX = assay: CLB-induced H2AX; assay type: cell-based
CLL lymphocytes = assay: MTT cytotoxic assay, CLB sensitization (Example I); assay type: cell-based, human; conditions: MTT 72 h
Experimental: Aliquots containing 1×10^6 cells/ml are sent for T-lymphocyte analysis. The percentage of contaminating T lymphocytes is determined using fluorescence-activated cell sorting analysis with CD3 antibody. […] A-2) Plating Efficiency and Dosing. […] Only dose responses with linear plating efficiencies are analyzed. […] A-3) Cytotoxic Assay. […] The percentage of surviving cells after treatment respect to vehicle treated cells (control) is calculated as (OD treated cells/OD untreated cells)×100. […] A-4) Statistical Analysis Differences between mean values is assessed by two tailed t-test. Correlation and linear regression analysis are performed using the EXCEL Statistical Tool Package.

Cc1cn(-c2cc(NC(=O)c3ccc(C)c(Nc4nccc(-c5cccnc5)n4)c3)cc(C(F)(F)F)c2)cn1 [Nilotinib, 4-methyl-3-[[4-(3-pyridinyl)-2-pyrimidinyl]amino]-N-[5-(4-methyl-1H-imidazol-1-yl)-3-(trifluoromethyl)phenyl]benzamide]
NFκB pathway (NFκB pathway): down regulation
CLB-induced □ H2AX (H2AX): increased
samples in which potency in sensitizing CLL lymphocytes towards chlorambucil was greater than imatinib (CLL lymphocytes): 16/19
